In patent publication US11654136B2, “Phosphoinositide 3-kinase inhibitor with a zinc binding moiety” (Curis, Inc., priority 2011, dated 2023):

Experiments:
Assay type in all cases: cell-based
WiDr = experiment: Cell proliferation assay WiDr; details: Homo sapiens, Colon, 72 hours, read-out: IC50 antiproliferative activity
Procedure: (§1) Growth inhibition was accessed by adenosine triphosphate (ATP) content assay using Promega CellTiter-Glo kit. Promega CellTiter-Glo kit is an ATP monitoring system based on firefly luciferase. Briefly, 16 μl of mammalian cell lysis and substrate solution was added to 84 µl of culture medium per well to lyse the cells and stabilize the ATP. The mixture was shaken and incubated for 30 minutes and subsequently the luminescence was measured. IC50 values were calculated using PRISM software (GraphPad Software) with sigmoidal dose-response curve fitting.

SW403 = experiment: Cell proliferation assay SW403; details: Homo sapiens, SW-403, Colon, 72 hours, read-out: IC50 antiproliferative activity
Procedure: as §1

SW620 = experiment: Cell proliferation assay SW620; details: Homo sapiens, SW-620, Colon, 72 hours, read-out: IC50 antiproliferative activity
Procedure: as §1

SWI-116 = experiment: Cell proliferation assay SWI-116; details: Homo sapiens, Colon, 72 hours, read-out: IC50 antiproliferative activity
Procedure: as §1

T-84 = experiment: Cell proliferation assay T-84; details: Homo sapiens, T84, Colon, 72 hours, read-out: IC50 antiproliferative activity
Procedure: as §1

H358 = experiment: Cell proliferation assay H358; details: Homo sapiens, NCI-H358, NSCLC, 72 hours, read-out: IC50 antiproliferative activity
Procedure: as §1

H2122 = experiment: Cell proliferation assay H2122; details: Homo sapiens, NCI-H2122, NSCLC, 72 hours, read-out: IC50 antiproliferative activity
Procedure: as §1

H460 = experiment: Cell proliferation assay H460; details: Homo sapiens, NCI-H460, NSCLC, 72 hours, read-out: IC50 antiproliferative activity
Procedure: as §1

Calu6 = experiment: Cell proliferation assay Calu6; details: Homo sapiens, Calu-6, NSCLC, 72 hours, read-out: IC50 antiproliferative activity
Procedure: as §1

MiaPaca2 = experiment: Cell proliferation assay MiaPaca2; details: Homo sapiens, MIA PaCa-2, Pancreas, 72 hours, read-out: IC50 antiproliferative activity
Procedure: as §1

CaPan2 = experiment: Cell proliferation assay CaPan2; details: Homo sapiens, Capan-2, Pancreas, 72 hours, read-out: IC50 antiproliferative activity
Procedure: as §1

CFPAC-1 = experiment: Cell proliferation assay CFPAC-1; details: Homo sapiens, Pancreas, 72 hours, read-out: IC50 antiproliferative activity
Procedure: as §1

PANC-1 = experiment: Cell proliferation assay PANC-1; details: Homo sapiens, Pancreas, 72 hours, read-out: IC50 antiproliferative activity
Procedure: as §1

SW1990 = experiment: Cell proliferation assay SW1990; details: Homo sapiens, Pancreas, 72 hours, read-out: IC50 antiproliferative activity
Procedure: as §1

HCC1500 = experiment: Cell proliferation assay HCC1500; details: Homo sapiens, Breast, 72 hours, read-out: IC50 antiproliferative activity
Procedure: as §1

SKBr3 = experiment: Cell proliferation assay SKBr3; details: Homo sapiens, SK-BR-3, Breast, 72 hours, read-out: IC50 antiproliferative activity
Procedure: as §1

BT474 = experiment: Cell proliferation assay BT474; details: Homo sapiens, BT-474, Breast, 72 hours, read-out: IC50 antiproliferative activity
Procedure: as §1

MDA-MB-361 = experiment: Cell proliferation assay MDA-MB-361; details: Homo sapiens, Breast, 72 hours, read-out: IC50 antiproliferative activity
Procedure: as §1

MCF-7 = experiment: Cell proliferation assay MCF-7; details: Homo sapiens, MCF7, Breast, 72 hours, read-out: IC50 antiproliferative activity
Procedure: as §1

MDA-MB-468 = experiment: Cell proliferation assay MDA-MB-468; details: Homo sapiens, Breast, 72 hours, read-out: IC50 antiproliferative activity
Procedure: as §1

SUP-B15 = experiment: Cell proliferation assay SUP-B15; details: Homo sapiens, ALL, 72 hours, read-out: IC50 antiproliferative activity
Procedure: as §1

HL-60 = experiment: Cell proliferation assay HL-60; details: Homo sapiens, AML, 72 hours, read-out: IC50 antiproliferative activity
Procedure: as §1

U937 = experiment: Cell proliferation assay U937; details: Homo sapiens, U-937, AML, 72 hours, read-out: IC50 antiproliferative activity
Procedure: as §1

THP-1 = experiment: Cell proliferation assay THP-1; details: Homo sapiens, AML, 72 hours, read-out: IC50 antiproliferative activity
Procedure: as §1

MV-4-11 = experiment: Cell proliferation assay MV-4-11; details: Homo sapiens, MV4-11, AML, 72 hours, read-out: IC50 antiproliferative activity
Procedure: as §1

Pfeiffer = experiment: Cell proliferation assay Pfeiffer; details: Homo sapiens, B-Cell Lymphoma, 72 hours, read-out: IC50 antiproliferative activity
Procedure: as §1

RL = experiment: Cell proliferation assay RL; details: Homo sapiens, B-Cell Lymphoma, 72 hours, read-out: IC50 antiproliferative activity
Procedure: as §1

DOHH2 = experiment: Cell proliferation assay DOHH2; details: Homo sapiens, DOHH-2, B-Cell Lymphoma, 72 hours, read-out: IC50 antiproliferative activity
Procedure: as §1

Granta 519 = experiment: Cell proliferation assay Granta 519; details: Homo sapiens, B-Cell Lymphoma, 72 hours, read-out: IC50 antiproliferative activity
Procedure: as §1

Su-DHL4 = experiment: Cell proliferation assay Su-DHL4; details: Homo sapiens, SU-DHL-4, B-Cell Lymphoma, 72 hours, read-out: IC50 antiproliferative activity
Procedure: as §1

Daudi = experiment: Cell proliferation assay Daudi; details: Homo sapiens, B-Cell Lymphoma, 72 hours, read-out: IC50 antiproliferative activity
Procedure: as §1

MJ = experiment: Cell proliferation assay MJ; details: Homo sapiens, T-Cell Lymphoma, 72 hours, read-out: IC50 antiproliferative activity
Procedure: as §1

HuT78 = experiment: Cell proliferation assay HuT78; details: Homo sapiens, T-Cell Lymphoma, 72 hours, read-out: IC50 antiproliferative activity
Procedure: as §1

K562 = experiment: Cell proliferation assay K562; details: Homo sapiens, CML, 72 hours, read-out: IC50 antiproliferative activity
Procedure: as §1

MEG-01 = experiment: Cell proliferation assay MEG-01; details: Homo sapiens, CML, 72 hours, read-out: IC50 antiproliferative activity
Procedure: as §1

RPMI-8226 = experiment: Cell proliferation assay RPMI-8226; details: Homo sapiens, Multiple Myeloma, 72 hours, read-out: IC50 antiproliferative activity
Procedure: as §1

OPM-2 = experiment: Cell proliferation assay OPM-2; details: Homo sapiens, Multiple Myeloma, 72 hours, read-out: IC50 antiproliferative activity
Procedure: as §1

SMILES	IC50 (WiDr) [nM]	IC50 (SW403) [nM]	IC50 (SW620) [nM]	IC50 (SWI-116) [nM]	IC50 (T-84) [nM]	IC50 (H358) [nM]	IC50 (H2122) [nM]	IC50 (H460) [nM]	IC50 (Calu6) [nM]	IC50 (MiaPaca2) [nM]	IC50 (CaPan2) [nM]	IC50 (CFPAC-1) [nM]	IC50 (PANC-1) [nM]	IC50 (SW1990) [nM]	IC50 (HCC1500) [nM]	IC50 (SKBr3) [nM]	IC50 (BT474) [nM]	IC50 (MDA-MB-361) [nM]	IC50 (MCF-7) [nM]	IC50 (MDA-MB-468) [nM]	further results
COc1ccc(-c2nc(N3CCOCC3)c3sc(CN(C)c4ncc(C(=O)NO)cn4)cc3n2)cn1 [Compound 1, N-hydroxy-2-(((2-(6-methoxypyridin-3-yl)-4-morpholinothieno[3,2-d]pyrimidin-6-yl)methyl)(methyl)amino)pyrimidine-5-carboxamide]	10 to 100	< 10	< 10	< 10	10 to 100	< 10	< 10	10 to 100	10 to 100	10 to 100	10 to 100	10 to 100	10 to 100	< 10	< 10	10 to 100	< 10	< 10	< 10	10 to 100	IC50 (SUP-B15): < 10 nM; IC50 (HL-60): < 10 nM; IC50 (U937): < 10 nM; IC50 (THP-1): 10 to 100 nM; IC50 (MV-4-11): < 10 nM; IC50 (Pfeiffer): < 10 nM; IC50 (RL): < 10 nM; IC50 (DOHH2): < 10 nM; IC50 (Granta 519): < 10 nM; IC50 (Su-DHL4): < 10 nM; IC50 (Daudi): 10 to 100 nM; IC50 (MJ): < 10 nM; IC50 (HuT78): < 10 nM; IC50 (K562): 10 to 100 nM; IC50 (MEG-01): < 10 nM; IC50 (RPMI-8226): < 10 nM; IC50 (OPM-2): < 10 nM
CS(=O)(=O)N1CCN(Cc2cc3nc(-c4cccc5[nH]ncc45)nc(N4CCOCC4)c3s2)CC1 [GDC-0941, reference compound]	> 10000	> 10000	> 10000	> 10000	1000 to 10000	1000 to 10000	1000 to 10000	> 10000	> 10000	> 10000	> 10000	> 10000	1000 to 10000	> 10000	> 10000	> 10000	100 to 1000	100 to 1000	100 to 1000	100 to 1000	IC50 (SUP-B15): 1000 to 10000 nM; IC50 (HL-60): 100 to 1000 nM; IC50 (U937): 1000 to 10000 nM; IC50 (THP-1): 1000 to 10000 nM; IC50 (MV-4-11): 1000 to 10000 nM; IC50 (Pfeiffer): 100 to 1000 nM; IC50 (RL): 1000 to 10000 nM; IC50 (DOHH2): 10 to 100 nM; IC50 (Granta 519): > 10000 nM; IC50 (Su-DHL4): 100 to 1000 nM; IC50 (Daudi): > 10000 nM; IC50 (MJ): > 10000 nM; IC50 (HuT78): 100 to 1000 nM; IC50 (K562): 1000 to 10000 nM; IC50 (MEG-01): > 10000 nM; IC50 (RPMI-8226): > 10000 nM; IC50 (OPM-2): 10 to 100 nM
